Experiment [1] concerns the target T1, cdHDAC4wt (Homo sapiens, UniProt P56524).
T1 construct: consists of 410 amino acids (human HDAC4 T648-T1057) and has a molecular weight of 44.2 kDa; His6-SUMO (cleaved yes); made in house; host or cells: E. coli (BL21) DE3 pLysS, pET14b vector
Nature of the experiment: Reversibility assay via rapid dilution; residence time from reversibility data. The experiment is classed as biochemical. The note with it: first order dissociation assumed; read-out: RT (RD), residence time from rapid dilution. Here is the method:
Rapid dilution was performed by diluting the incubated mixture 100-fold with substrate (Boc-Lys{TFA}-7-Amino-4-methylcoumarin (Bachem, Bubendorf, Switzerland)) with the final substrate concentration being 20 µM. […] A positive control without TZD ligand and a blank without enzyme and TZD ligand were also carried out. […] Once again the final substrate concentration was 20 µM. […] The deacetylated substrate was converted into a fluorescent product by the addition of 0.4 mg/mL trypsin (AppliChem, Darmstadt, Germany). The release of fluorogenic substrate was followed in a microplate reader (PherStar Plus, BMG Labtech, Ortenberg, Germany) at 450 nm (λEx = 350 nm) and correlated the positive control. […] All incubations steps were performed for 60 min at 30 °C and 450 rpm. The substrate was preheated to 30 °C before the rapid dilution step.
The reciprocal values for k equals the residence time of the respective TZD ligand (residence time = koff^−1), which can be compared with the residence times gained from association data.

Experiment [2] addresses T2, cdHDAC4wt (catalytic domain of human wild type histone deacetylase 4) (Homo sapiens, UniProt P56524).
T2 construct: consists of 410 amino acids (human HDAC4 T648-T1057) and has a molecular weight of 44.2 kDa; His6-SUMO (cleaved yes); made in house; host or cells: E. coli (BL21) DE3 pLysS, pET14b vector
The experiment in a line: IC50 determination, enzyme activity assay with Boc-Lys{TFA}-AMC. The experiment is classed as biochemical. The conditions noted are these: mean ± SD, N = 3. Here is the method: Afterwards the enzymatic reaction was initiated by the addition of 20 µM Boc-Lys{TFA}-7-Amino-4-methylcoumarin (Bachem, Bubendorf, Switzerland) as substrate. […] The deacetylated substrate was converted into a fluorescent product by the addition of 0.4 mg/mL trypsin (AppliChem, Darmstadt, Germany). The release of fluorogenic substrate was followed in a microplate reader (PherStar Plus, BMG Labtech, Ortenberg, Germany) at 450 nm (λEx = 350 nm) and correlated to enzyme activity.
All incubations steps were performed for 60 min at 30 °C and 450 rpm.

Experiment [3] concerns the target T1, cdHDAC4wt. Nature of the experiment: Association kinetics (semi continuous enzyme activity assay, kobs vs inhibitor concentration). The experiment is classed as biochemical. The note with it: for residence time: 1/koff (two step) or 1/k−3 (one step), read-out: RT (KF), residence time from kinetic fit; for forward isomerization rate constant (k2) / koff / kon: two step model; for forward isomerization rate constant (k2) / koff: isomerization rate; for koff: y-axis intercept; for Ki: two step induced fit model, read-out: K1 (equilibrium constant of initial encounter complex); for y-intercept of kobs plot (k−3): linear regression; for y-intercept of kobs plot (k−3) / k3 / k−3: one step model; for k3: slope of kobs vs ligand concentration; for k−3: y-intercept. Here is the method:
A serial dilution of inhibitor beginning at 10-fold of respective IC50-value in assay buffer (25 mM Tris-HCl, pH 8.0, 75 mM KCl, 0.001% Pluronic F-127) was made in a black 96-well microtiter half-area plate (Greiner, Kremsmuenster, Austria). The dilutions were added to 3 nM cdHDAC4wt. Shortly after, the reaction was initiated by adding 20 µM Boc-Lys{TFA}-7-Amino-4-methylcoumarin (Bachem, Bubendorf, Switzerland) as substrate. […] Finally 0.4 mg/mL trypsin was added to split the deacetylated substrate in the fluorescent product which was measured at 450 nm (λEx = 350 nm) (PherStar Plus, BMG Labtech, Ortenberg, Germany). […] The standardized RFUs were plotted against the incubation time. […] Due to this knowledge the data were fitted via non linear regression with GraphPad Prism program to the following equation by Copeland [27]:(2) Y=νs·t+νi−νs/kobs·(1−e^(−kobs·t))+d where vi is the initial slope, vs is the second lower slope, kobs is the respective rate constant, t is time and d the correction for possible data offset.
Afterwards kobs values were plotted against their respective inhibitor concentration.

Experiment [4] concerns the target T1, cdHDAC4wt. Nature of the experiment: Michaelis Menten kinetics for mode of action. It is filed as biochemical. The note with it: increasing Km, essentially unchanged vmax with increasing compound concentration.
Procedure: For E677A, F812A, C813S, F871A and H976Y (GoF) 5 nM enzyme were used. […] Signal was developed for 30 min at room temperature and the fluorescence was measured at 450 nm (λEx = 350 nm) in a PherStar Plus (BMG Labtech, Ortenberg, Germany) fluorescence plate reader. […] Afterwards, the product concentration was plotted against the time and v0 (µM/min) was calculated from the resulting slopes. Now the initial velocity was plotted against the substrate concentration and Km was calculated using a Michaelis Menten-Fit in GraphPad Prism. The value of vmax is neglected because enzyme concentration and purity are too inconsistent between the mutant variant to calculate this value appropriate.
The next experiment has as its system cdHDAC4 mutant variants. The experiment in a line: Mutational study: Ki (Cheng-Prusoff from IC50) against cdHDAC4 mutant variants relative to wild type. The note with it: exchange of S758, D759, E764, T808, F812, F871 and L943. It is filed as biochemical, human. Here is the method:
To gain an thorough knowledge of the most involved amino acids necessary for molecular recognition of TZD ligands to cdHDAC4wt, a comprehensive mutational study was designed. Amino acids flanking the active site binding pocket in the closed (Figure 5A) and open (Figure 5B) conformation of the enzyme were systematically exchanged and IC50-values of a subset of 25 TZDs were determined against every mutant variant. Because IC50-values depends on the substrate concentration and the Km of the substrate, the Michaelis Menten parameters were determined first using substrate tert-butyl N-[(2S)-1-[(4-methyl-2-oxochromen-7-yl)amino]-1-oxo-6-[(2,2,2-trifluoroacetyl)amino]hexan-2-yl]carbamate (Boc-Lys{TFA}-AMC) in a semi continuous enzyme activity assay (Figure 5C and Figure S1). IC50-values were transformed into binding constant Ki using the Cheng-Prusoff equation to enable a fair comparison of ligand affinities to the respective HDAC4 variant:(1) IC50=(1+[S]/Km)×Ki
A serial dilution of TZD in assay buffer (25 mM TRIS-HCl, 75 mM KCl, 0.001% Pluronic F-127, pH 8.0) was incubated with 1 nM cdHDAC4wt in a black 96-well microtiter plate (Greiner). […] The release of fluorogenic substrate was followed in a microplate reader (PherStar Plus, BMG Labtech, Ortenberg, Germany) at 450 nm (λEx = 350 nm) and correlated to enzyme activity. […]

Each structure is given as a SMILES string.

T2 sequence (P56524 648-1057): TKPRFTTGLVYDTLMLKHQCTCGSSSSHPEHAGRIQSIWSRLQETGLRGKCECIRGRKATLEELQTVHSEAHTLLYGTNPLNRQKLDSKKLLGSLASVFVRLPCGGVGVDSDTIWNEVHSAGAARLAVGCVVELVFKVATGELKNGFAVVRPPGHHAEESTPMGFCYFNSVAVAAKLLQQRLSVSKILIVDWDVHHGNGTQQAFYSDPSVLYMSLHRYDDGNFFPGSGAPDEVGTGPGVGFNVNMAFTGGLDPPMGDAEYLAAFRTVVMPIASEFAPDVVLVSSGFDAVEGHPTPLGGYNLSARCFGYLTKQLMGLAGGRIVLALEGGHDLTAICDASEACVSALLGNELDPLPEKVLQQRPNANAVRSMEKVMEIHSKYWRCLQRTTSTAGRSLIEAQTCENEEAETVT
T1 sequence (P56524 648-1057): as above

Regarding `O=C1NC(=O)/C(=C/c2ccc(OCC(=O)N3N=C(c4ccccc4)CC3c3ccc(C(F)(F)F)cc3)cc2)S1` (centres unmarked) [4d], the residence time at cdHDAC4wt [1] worked out at 23 ± 6 min. The compound further registered an IC50 in experiment [2] of 790 ± 40 nM. Further, on cdHDAC4wt [3], the residence time came out at 26 ± 11 min, the forward isomerization rate constant (k2) was 0.008 ± 0.001 s⁻¹, the koff was found to be 0.0006 ± 0.0003 s⁻¹ and the Ki was 1700 ± 700 nM. The kon entry at cdHDAC4wt [3] is on record as “(8 ± 1) × 10^−3 s^−1”.

In the case of `O=C(COc1ccc(/C=C2\SC(=O)NC2=O)cn1)Nc1nc2ccccc2s1` [5w], the residence time at cdHDAC4wt [1] amounted to 12 ± 3 min. Besides, the mode of inhibition result on cdHDAC4wt [4] is on record as “competitive inhibitor”. Besides, at cdHDAC4wt [3], the residence time worked out at 19 ± 7 min, the “y-intercept of kobs plot (k−3)” value was “(8 ± 3) × 10^−4 s^−1”, the k3 turned out to be 1900 ± 100 M⁻¹ s⁻¹ and the “k−3” value is 0.08 ± 0.03 s^−1 (×10^−2).

As for `O=C(COc1ccc2cc(/C=C3\SC(=O)NC3=O)ccc2c1)Nc1ccc(C(F)(F)F)cc1` [7i], on cdHDAC4wt [1], the residence time worked out at 17 ± 3 min. Also, the IC50 in experiment [2] was 1300 ± 100 nM. At cdHDAC4wt [3], the residence time was 9.3 ± 0.5 min, the “y-intercept of kobs plot (k−3)” value worked out at 0.0018 s⁻¹, the k3 came out at 100 ± 30 M⁻¹ s⁻¹ and the “k−3” value was 0.18 ± 0.01 s^−1 (×10^−2).

`O=C(COc1ccc2cc(/C=C3\SC(=O)NC3=O)ccc2c1)Nc1ncccc1F` [7s]: the residence time on cdHDAC4wt [1] is 11 ± 1 min. Also, 780 ± 80 nM corresponded to half-maximal inhibition in experiment [2] (IC50). Moreover, on cdHDAC4wt [3], the residence time was 10 ± 1 min, the “y-intercept of kobs plot (k−3)” value is 0.0016 s⁻¹, the k3 stood at 210 ± 40 M⁻¹ s⁻¹ and the “k−3” value is 0.16 ± 0.02 s^−1 (×10^−2).

For the compound `O=C1NC(=O)/C(=C/c2ccc3cc(OCC(=O)N4N=C(c5ccccc5)CC4c4ccccc4)ccc3c2)S1` (centres unmarked) [8a], the residence time at cdHDAC4wt [1] was determined as 19 ± 2 min. This compound displayed an IC50 in experiment [2] of 770 ± 90 nM. On cdHDAC4wt [3], the residence time was 11 ± 4 min, the forward isomerization rate constant (k2) was 0.0049 ± 0.0014 s⁻¹, the koff is 0.0015 ± 0.0006 s⁻¹ and the Ki was found to be 2400 ± 1800 nM.

For the compound `O=C1NC(=O)/C(=C/c2ccc3cc(OCC(=O)N4N=C(c5ccccc5)CC4c4ccccc4F)ccc3c2)S1` (centres unmarked) [8b], the residence time at cdHDAC4wt [1] turned out to be 29 ± 3 min. This compound also had an IC50 in experiment [2] of 330 ± 20 nM. On cdHDAC4wt [3], the residence time stood at 11 ± 3 min, the forward isomerization rate constant (k2) was found to be 0.003 ± 0.0006 s⁻¹, the koff was 0.0015 ± 0.0004 s⁻¹ and the Ki stood at 650 ± 470 nM.

Regarding `O=C1NC(=O)/C(=C/c2ccc3cc(OCC(=O)N4N=C(c5ccccc5)CC4c4ccco4)ccc3c2)S1` (centres unmarked) [8c], at cdHDAC4wt [1], the residence time worked out at 12 ± 1 min. This compound displayed an IC50 in experiment [2] of 1200 ± 100 nM. Moreover, on cdHDAC4wt [3], the residence time stood at 12 ± 6 min, the forward isomerization rate constant (k2) came out at 0.0021 ± 0.0009 s⁻¹, the koff was determined as 0.0014 ± 0.0007 s⁻¹ and the kon entry is reported as “(2.1 ± 0.9) × 10^−3 s^−1”.

Regarding `Cc1ccc(C2CC(c3ccccc3)=NN2C(=O)COc2ccc3cc(/C=C4\SC(=O)NC4=O)ccc3c2)cc1` (centres unmarked) [8g], at cdHDAC4wt [1], the residence time stood at 18 ± 7 min. In experiment [2], 760 ± 80 nM corresponded to half-maximal inhibition (IC50). Besides, on cdHDAC4wt [3], the residence time is 10 ± 2 min, the forward isomerization rate constant (k2) is 0.0038 ± 0.0007 s⁻¹, the koff was found to be 0.0016 ± 0.0003 s⁻¹ and the Ki was determined as 3000 ± 2000 nM.

As to `O=C1NC(=O)/C(=C/c2ccc3cc(OCC(=O)N4N=C(c5ccccc5)CC4c4cccs4)ccc3c2)S1` (centres unmarked) [8i], at cdHDAC4wt [1], the residence time amounted to 13 ± 8 min. In experiment [2], 340 ± 40 nM corresponded to half-maximal inhibition (IC50). For the same compound, on cdHDAC4wt [3], the residence time is 14 ± 4 min, the forward isomerization rate constant (k2) was found to be 0.0054 ± 0.0005 s⁻¹, the koff worked out at 0.0012 ± 0.0003 s⁻¹ and the Ki was determined as 650 ± 310 nM. Further, the kon result at cdHDAC4wt [3] is recorded as “(5.4 ± 0.5) × 10^−3 s^−1”.

Regarding `O=C1NC(=O)/C(=C/c2ccc(OCC(=O)N3N=C(c4ccc(F)cc4)CC3c3ccc(Cl)c(Cl)c3)cc2)S1` (centres unmarked) [12j], on cdHDAC4wt [1], the residence time was found to be 11 ± 5 min. The compound also gave an IC50 in experiment [2] of 830 ± 20 nM. Besides, at cdHDAC4wt [3], the residence time was determined as 9 ± 3 min, the forward isomerization rate constant (k2) is 0.0031 ± 0.0007 s⁻¹ and the koff was found to be 0.0018 ± 0.0005 s⁻¹.

As to `O=C1NC(=O)/C(=C/c2ccc3cc(OCC(=O)N4N=C(c5ccc(F)cc5)CC4c4ccco4)ccc3c2)S1` (centres unmarked) [16c], at cdHDAC4wt [1], the residence time came out at 21 ± 7 min. The IC50 in experiment [2] worked out at 1400 ± 200 nM. The forward isomerization rate constant (k2) on cdHDAC4wt [3] worked out at 0.0035 ± 0.0018 s⁻¹.

Take `Cc1ccc(C2CC(c3ccc(F)cc3)=NN2C(=O)COc2ccc3cc(/C=C4\SC(=O)NC4=O)ccc3c2)cc1` (centres unmarked) [16g]: the residence time on cdHDAC4wt [1] is 15 ± 2 min. The compound further gave an IC50 in experiment [2] of 460 ± 60 nM. The forward isomerization rate constant (k2) on cdHDAC4wt [3] stood at 0.0051 ± 0.0011 s⁻¹.

Take `CC(/C=C/C(=O)NO)=C\[C@@H](C)C(=O)c1ccc(N(C)C)cc1` [TSA, Trichostatin A]: the “log10Ki ratio (Ki mutant / Ki wildtype)” value with cdHDAC4 mutant variants was “above 1”.
